In the CheMixHub viscosity set:

Experiment: xn = mol fraction of the nth substance listed

CCCOCC(C)O (stereo unspecified) + CCN(CC)CC
viscosity [mPa·s], 100 kPa
Conditions | 298.15 K | 303.15 K | 308.15 K
x1 = 0.0502 | 0.4177 | 0.3933 | 0.3699
x1 = 0.1001 | 0.4846 | 0.4496 | 0.4206
x1 = 0.1501 | 0.5523 | 0.5096 | 0.476
x1 = 0.2016 | 0.6258 | 0.5726 | 0.5332
x1 = 0.3 | 0.7805 | 0.7042 | 0.6523
x1 = 0.4 | 0.9537 | 0.8515 | 0.7863
x1 = 0.5 | 1.153 | 1.017 | 0.9326
x1 = 0.5998 | 1.382 | 1.207 | 1.102
x1 = 0.6999 | 1.625 | 1.406 | 1.281
x1 = 0.7996 | 1.887 | 1.629 | 1.474
x1 = 0.8998 | 2.169 | 1.87 | 1.682
x1 = 0.9499 | 2.304 | 1.973 | 1.775

CCCOCC(C)O (stereo unspecified) + CCNCC
viscosity [mPa·s], 100 kPa
Conditions | 298.15 K | 303.15 K | 308.15 K
x1 = 0.0509 | 0.3488 | 0.3318 | 0.3107
x1 = 0.1002 | 0.3949 | 0.3733 | 0.3489
x1 = 0.1505 | 0.4552 | 0.4261 | 0.4014
x1 = 0.2 | 0.519 | 0.4819 | 0.4542
x1 = 0.3003 | 0.6838 | 0.6321 | 0.5992
x1 = 0.4 | 0.8976 | 0.8055 | 0.7606
x1 = 0.5002 | 1.171 | 1.034 | 0.9506
x1 = 0.5999 | 1.436 | 1.264 | 1.15
x1 = 0.7 | 1.742 | 1.514 | 1.365
x1 = 0.7982 | 2.014 | 1.738 | 1.562
x1 = 0.9 | 2.265 | 1.94 | 1.739
x1 = 0.9496 | 2.361 | 2.021 | 1.814

C1COCO1 + CCO
303.15 K, 101 kPa
Conditions | viscosity [mPa·s]
x1 = 0.06463 | 0.898
x1 = 0.1346 | 0.838
x1 = 0.2104 | 0.7691
x1 = 0.2931 | 0.6852
x1 = 0.3834 | 0.6333
x1 = 0.4826 | 0.6121
x1 = 0.592 | 0.591
x1 = 0.7133 | 0.5886
x1 = 0.8484 | 0.569

C=CCN(CC=C)C(=O)C(Cl)Cl + CCO
viscosity [mPa·s], 101 kPa
Conditions | x1 = 0.004764 | x1 = 0.01126 | x1 = 0.01785 | x1 = 0.02455 | x1 = 0.03127 | x1 = 0.03725 | x1 = 0.04407
293.15 K | 1.208 | 1.238 | 1.258 | 1.284 | 1.314 | 1.334 | 1.372
298.15 K | 1.108 | 1.134 | 1.162 | 1.178 | 1.201 | 1.215 | 1.245
303.15 K | 1.008 | 1.025 | 1.043 | 1.062 | 1.08 | 1.1 | 1.116
308.15 K | 0.9132 | 0.9322 | 0.9453 | 0.9641 | 0.9854 | 0.9997 | 1.02
313.15 K | 0.832 | 0.8475 | 0.8596 | 0.8743 | 0.8941 | 0.9139 | 0.9264

CCCOCC(C)O (stereo unspecified) + CCO
viscosity [mPa·s], 101.33 kPa
Conditions | 298.15 K | 308.15 K | 318.15 K
x1 = 0.05 | 1.18 | 0.974 | 0.813
x1 = 0.1 | 1.272 | 1.041 | 0.863
x1 = 0.15 | 1.363 | 1.108 | 0.911
x1 = 0.2 | 1.448 | 1.171 | 0.96
x1 = 0.25 | 1.534 | 1.231 | 1.005
x1 = 0.3 | 1.612 | 1.288 | 1.046
x1 = 0.35 | 1.716 | 1.362 | 1.105
x1 = 0.4 | 1.79 | 1.417 | 1.142
x1 = 0.45 | 1.862 | 1.467 | 1.177
x1 = 0.5 | 1.928 | 1.513 | 1.21
x1 = 0.55 | 1.998 | 1.557 | 1.241
x1 = 0.6 | 2.056 | 1.602 | 1.274
x1 = 0.65 | 2.113 | 1.651 | 1.297
x1 = 0.7 | 2.168 | 1.674 | 1.322
x1 = 0.75 | 2.219 | 1.706 | 1.345
x1 = 0.8 | 2.264 | 1.734 | 1.368
x1 = 0.8498 | 2.307 | 1.766 | 1.389
x1 = 0.9 | 2.354 | 1.79 | 1.406
x1 = 0.95 | 2.369 | 1.815 | 1.414

CN(C)P(=O)(N(C)C)N(C)C + CCO
303.15 K, 101.3 kPa
Conditions | viscosity [mPa·s]
x1 = 0.1007 | 1.255
x1 = 0.2043 | 1.461
x1 = 0.2959 | 1.627
x1 = 0.3983 | 1.807
x1 = 0.5079 | 2.005
x1 = 0.5998 | 2.18
x1 = 0.698 | 2.362
x1 = 0.8012 | 2.557
x1 = 0.9052 | 2.75

Cc1cccc(C)n1 + CCO
298.15 K, 101 kPa
Conditions | viscosity [mPa·s]
x1 = 0.0454 | 1.15
x1 = 0.09639 | 1.164
x1 = 0.2211 | 1.202
x1 = 0.3891 | 1.133
x1 = 0.6241 | 1.02
x1 = 0.8038 | 0.9686

CC(=O)c1ccccc1 + CCOC(=O)OCC
viscosity [mPa·s], 101 kPa
Conditions | x2 = 0.0972 | x2 = 0.1515 | x2 = 0.2512 | x2 = 0.3615 | x2 = 0.4921 | x2 = 0.5705 | x2 = 0.6654 | x2 = 0.7584 | x2 = 0.8932 | x2 = 0.9425
303.15 K | 1.413 | 1.358 | – | 1.155 | – | 0.977 | 0.906 | 0.843 | 0.76 | 0.732
308.15 K | 1.286 | 1.237 | 1.15 | 1.059 | 0.958 | 0.902 | 0.839 | 0.783 | 0.708 | 0.683
313.15 K | 1.205 | 1.159 | 1.079 | 0.995 | 0.901 | 0.85 | 0.791 | 0.738 | 0.669 | 0.646
